From patent US9636418B2 (priority 2013, dated 2017)
pIC50: −log10 of the molar value. Where “and” joins values, the source holds several entries; their conditions need not be identical. Equal entries are not always repeated.

Assays:
Assay in all cases: cell-based
hNav1.4 = hNav1.4 (Homo sapiens, UniProt P35499); conditions: IonWorks Quattro; read-out: IC50 Nav1.4
hNav1.3 = hNav1.3 (Homo sapiens, UniProt Q9NY46); conditions: IonWorks Quattro; read-out: IC50 Nav1.3
hNav1.7 = hNav1.7 (Homo sapiens, UniProt Q15858); conditions: IonWorks Quattro; read-out: IC50 Nav1.7
hNav1.5 = hNav1.5 (Homo sapiens, UniProt Q14524); conditions: IonWorks Quattro; read-out: IC50 Nav1.5

Chain of hNav1.3 (Q9NY46 whole entry): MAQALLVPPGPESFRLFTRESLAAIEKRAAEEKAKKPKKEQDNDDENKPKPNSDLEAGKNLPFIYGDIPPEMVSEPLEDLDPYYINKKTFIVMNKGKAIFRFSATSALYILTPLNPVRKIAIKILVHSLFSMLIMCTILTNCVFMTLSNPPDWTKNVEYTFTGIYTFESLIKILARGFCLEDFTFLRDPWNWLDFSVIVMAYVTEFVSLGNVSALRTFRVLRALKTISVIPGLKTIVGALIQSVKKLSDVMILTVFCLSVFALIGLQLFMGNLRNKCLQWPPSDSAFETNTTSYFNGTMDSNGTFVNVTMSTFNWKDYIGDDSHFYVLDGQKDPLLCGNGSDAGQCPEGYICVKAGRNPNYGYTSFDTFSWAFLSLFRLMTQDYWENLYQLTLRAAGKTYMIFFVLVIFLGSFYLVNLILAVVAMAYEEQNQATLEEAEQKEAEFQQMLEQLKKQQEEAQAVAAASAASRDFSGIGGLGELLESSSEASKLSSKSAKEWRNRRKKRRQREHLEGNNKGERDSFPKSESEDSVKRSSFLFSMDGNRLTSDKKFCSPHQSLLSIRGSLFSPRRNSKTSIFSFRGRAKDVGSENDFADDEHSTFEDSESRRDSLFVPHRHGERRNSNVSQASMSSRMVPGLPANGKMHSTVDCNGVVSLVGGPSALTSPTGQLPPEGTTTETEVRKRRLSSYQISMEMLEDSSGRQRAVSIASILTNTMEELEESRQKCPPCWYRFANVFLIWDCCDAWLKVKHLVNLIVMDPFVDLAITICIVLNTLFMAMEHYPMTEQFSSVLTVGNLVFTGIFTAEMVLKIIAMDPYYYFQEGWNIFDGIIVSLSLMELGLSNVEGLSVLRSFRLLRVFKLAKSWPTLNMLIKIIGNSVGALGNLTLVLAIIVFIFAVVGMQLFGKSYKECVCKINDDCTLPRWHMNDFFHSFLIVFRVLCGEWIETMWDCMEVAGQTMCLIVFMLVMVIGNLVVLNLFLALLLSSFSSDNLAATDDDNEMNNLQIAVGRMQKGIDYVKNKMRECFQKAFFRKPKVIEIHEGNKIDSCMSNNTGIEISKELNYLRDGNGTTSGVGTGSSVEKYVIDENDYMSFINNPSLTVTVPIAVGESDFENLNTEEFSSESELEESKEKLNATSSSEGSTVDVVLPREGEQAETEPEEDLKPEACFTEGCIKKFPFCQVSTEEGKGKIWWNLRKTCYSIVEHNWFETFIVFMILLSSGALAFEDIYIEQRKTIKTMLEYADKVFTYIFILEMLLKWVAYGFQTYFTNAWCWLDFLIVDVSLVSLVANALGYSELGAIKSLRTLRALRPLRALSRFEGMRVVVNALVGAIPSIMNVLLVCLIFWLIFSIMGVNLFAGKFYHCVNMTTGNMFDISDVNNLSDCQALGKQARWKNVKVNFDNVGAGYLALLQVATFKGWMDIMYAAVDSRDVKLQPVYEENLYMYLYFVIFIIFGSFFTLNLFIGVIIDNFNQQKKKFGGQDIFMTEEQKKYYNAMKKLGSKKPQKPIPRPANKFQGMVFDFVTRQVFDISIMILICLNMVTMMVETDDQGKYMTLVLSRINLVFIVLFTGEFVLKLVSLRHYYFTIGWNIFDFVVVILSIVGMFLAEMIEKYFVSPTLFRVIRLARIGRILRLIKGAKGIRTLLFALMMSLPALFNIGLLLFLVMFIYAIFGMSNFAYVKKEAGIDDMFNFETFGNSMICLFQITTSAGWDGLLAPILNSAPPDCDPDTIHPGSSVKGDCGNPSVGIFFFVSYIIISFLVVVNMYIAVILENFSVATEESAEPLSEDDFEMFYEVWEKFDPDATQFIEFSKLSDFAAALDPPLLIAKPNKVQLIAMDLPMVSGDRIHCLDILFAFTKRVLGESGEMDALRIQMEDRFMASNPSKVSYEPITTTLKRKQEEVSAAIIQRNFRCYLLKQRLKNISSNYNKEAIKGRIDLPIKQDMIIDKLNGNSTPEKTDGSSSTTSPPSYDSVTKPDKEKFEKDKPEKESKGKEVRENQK
Chain of hNav1.4 (P35499 whole entry): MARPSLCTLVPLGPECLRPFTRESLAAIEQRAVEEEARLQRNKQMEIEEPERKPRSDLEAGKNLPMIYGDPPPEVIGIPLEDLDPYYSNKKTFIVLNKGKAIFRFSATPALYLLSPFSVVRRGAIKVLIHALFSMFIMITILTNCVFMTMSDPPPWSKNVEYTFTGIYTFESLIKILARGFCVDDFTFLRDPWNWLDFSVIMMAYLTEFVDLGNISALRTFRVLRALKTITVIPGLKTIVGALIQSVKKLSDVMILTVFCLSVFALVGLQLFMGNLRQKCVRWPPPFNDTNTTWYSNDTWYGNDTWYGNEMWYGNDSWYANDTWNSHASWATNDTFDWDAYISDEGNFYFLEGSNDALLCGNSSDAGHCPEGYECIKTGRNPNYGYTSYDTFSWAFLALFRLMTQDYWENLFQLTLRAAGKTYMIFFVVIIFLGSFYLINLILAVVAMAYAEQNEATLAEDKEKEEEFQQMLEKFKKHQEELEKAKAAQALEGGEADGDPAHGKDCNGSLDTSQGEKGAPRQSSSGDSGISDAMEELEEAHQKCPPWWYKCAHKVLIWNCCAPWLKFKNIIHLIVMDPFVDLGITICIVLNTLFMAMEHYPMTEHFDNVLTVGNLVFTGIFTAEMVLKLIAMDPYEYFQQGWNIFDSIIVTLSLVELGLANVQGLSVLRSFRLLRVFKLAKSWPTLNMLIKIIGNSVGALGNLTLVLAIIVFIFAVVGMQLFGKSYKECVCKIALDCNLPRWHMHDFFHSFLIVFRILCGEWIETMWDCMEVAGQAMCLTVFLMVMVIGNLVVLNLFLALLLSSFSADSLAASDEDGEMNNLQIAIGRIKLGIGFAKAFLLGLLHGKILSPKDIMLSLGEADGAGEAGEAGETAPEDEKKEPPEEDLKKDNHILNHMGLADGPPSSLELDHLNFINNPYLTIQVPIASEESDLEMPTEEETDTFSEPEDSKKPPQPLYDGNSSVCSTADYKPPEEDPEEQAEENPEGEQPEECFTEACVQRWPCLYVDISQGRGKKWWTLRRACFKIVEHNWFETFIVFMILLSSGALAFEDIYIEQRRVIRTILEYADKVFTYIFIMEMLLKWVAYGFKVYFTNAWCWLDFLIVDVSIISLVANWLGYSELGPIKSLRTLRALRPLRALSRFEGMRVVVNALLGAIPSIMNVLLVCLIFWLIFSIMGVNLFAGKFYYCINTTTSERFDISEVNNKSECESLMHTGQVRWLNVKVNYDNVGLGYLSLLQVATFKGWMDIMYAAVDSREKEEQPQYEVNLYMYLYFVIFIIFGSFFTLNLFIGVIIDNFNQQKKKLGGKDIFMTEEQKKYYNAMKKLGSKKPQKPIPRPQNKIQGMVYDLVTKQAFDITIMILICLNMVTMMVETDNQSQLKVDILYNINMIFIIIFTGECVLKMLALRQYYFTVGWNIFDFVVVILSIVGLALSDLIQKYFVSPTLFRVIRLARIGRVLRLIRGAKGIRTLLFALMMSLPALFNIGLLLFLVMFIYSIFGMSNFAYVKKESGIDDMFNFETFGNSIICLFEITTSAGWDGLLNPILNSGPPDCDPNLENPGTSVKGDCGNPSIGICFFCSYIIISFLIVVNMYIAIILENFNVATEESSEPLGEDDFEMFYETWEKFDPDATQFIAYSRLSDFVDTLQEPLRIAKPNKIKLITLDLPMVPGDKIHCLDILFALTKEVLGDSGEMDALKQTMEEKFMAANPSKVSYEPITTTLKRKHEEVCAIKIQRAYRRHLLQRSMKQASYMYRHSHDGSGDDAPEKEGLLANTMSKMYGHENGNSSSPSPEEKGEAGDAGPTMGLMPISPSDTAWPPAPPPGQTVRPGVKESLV

Row | SMILES | pIC50 (hNav1.4) | pIC50 (hNav1.3) | pIC50 (hNav1.7) | pIC50 (hNav1.5)
1 | CC[C@H](C)[C@H](NC(=O)[C@H](Cc1ccc(O)cc1)NC(=O)[C@H](CCCCN)NC(=O)[C@H](CCCNC(=N)N)NC(=O)[C@@H]1CSSC[C@@H]2NC(=O)[C@H](C)NC(=O)[C@H](CCCNC(=N)N)NC(=O)[C@H](CCCCN)NC(=O)[C@H](CO)NC(=O)[C@H](CC(=O)O)NC(=O)[C@@H]3CSSC[C@H](NC(=O)[C@H](CCC(=O)O)NC(=O)[C@H](CC(C)C)NC(=O)CNC(=O)[C@H](CCC(=O)O)NC(=O)[C@H](CSSC[C@H](NC(=O)[C@@H](N)Cc4ccc(O)cc4)C(=O)N[C@@H](CCC(N)=O)C(=O)N[C@@H](CCCCN)C(=O)N[C@@H](Cc4c[nH]c5ccccc45)C(=O)N[C@@H](CCSC)C(=O)N[C@@H](Cc4c[nH]c5ccccc45)C(=O)N[C@@H]([C@@H](C)O)C(=O)N3)NC2=O)C(=O)N[C@@H](CCCCN)C(=O)N[C@@H](CC(C)C)C(=O)N[C@@H](CCCCN)C(=O)N1)C(N)=O [compound 228] | < 5.30 | < 5.30 | 5.57 | < 5.30
2 | CC[C@H](C)[C@H](NC(=O)[C@H](Cc1ccc(O)cc1)NC(=O)[C@H](CCCCN)NC(=O)[C@H](CCCNC(=N)N)NC(=O)[C@@H]1CSSC[C@@H]2NC(=O)[C@H](C)NC(=O)[C@H](CCCNC(=N)N)NC(=O)[C@H](CCCCN)NC(=O)[C@H](CO)NC(=O)[C@H](CC(=O)O)NC(=O)[C@@H]3CSSC[C@H](NC(=O)[C@H](CCC(=O)O)NC(=O)[C@H](CC(C)C)NC(=O)CNC(=O)[C@H](CCC(=O)O)NC(=O)[C@H](CSSC[C@H](NC(=O)[C@@H](N)Cc4ccc(O)cc4)C(=O)N[C@@H](CCC(N)=O)C(=O)N[C@@H](CCCCN)C(=O)N[C@@H](Cc4c[nH]c5ccccc45)C(=O)N[C@@H](CCSC)C(=O)N[C@@H](Cc4c[nH]c5ccccc45)C(=O)N[C@@H]([C@@H](C)O)C(=O)N3)NC2=O)C(=O)N[C@@H](CCCCN)C(=O)N[C@@H](CC(C)C)C(=O)N[C@@H](CC(N)=O)C(=O)N1)C(N)=O [compound 229] | < 5.30 | < 5.30 | < 5.30 | < 5.30
3 | CSCC[C@@H]1NC(=O)[C@H](Cc2c[nH]c3ccccc23)NC(=O)[C@H](CCCCN)NC(=O)[C@H](CCC(N)=O)NC(=O)[C@@H](NC(=O)[C@@H](N)Cc2ccc(O)cc2)CSSC[C@@H]2NC(=O)[C@@H]3CSSC[C@@H](C(=O)N[C@@H](CCCNC(=N)N)C(=O)N[C@@H](CCCCN)C(=O)N[C@@H](Cc4ccc(O)cc4)C(=O)N[C@@H](CCCNC(N)=O)C(N)=O)NC(=O)[C@H](Cc4c[nH]c5ccccc45)NC(=O)[C@H](CC(C)C)NC(=O)[C@H](CCCCN)NC(=O)[C@H](CSSC[C@H](NC(=O)[C@H]([C@@H](C)O)NC(=O)[C@H](Cc4c[nH]c5ccccc45)NC1=O)C(=O)N[C@@H](CC(=O)O)C(=O)N[C@@H](CO)C(=O)N[C@@H](CCCCN)C(=O)N[C@@H](CCCNC(=N)N)C(=O)N[C@@H](C)C(=O)N3)NC(=O)[C@H](CCC(=O)O)NC(=O)[C@H](CC(C)C)NC(=O)CNC(=O)[C@H](CCC(=O)O)NC2=O [compound 241] | < 5.30 | < 5.30 | 5.92 | < 5.30
4 | CSCC[C@@H]1NC(=O)[C@H](Cc2c[nH]c3ccccc23)NC(=O)[C@H](CCCCN)NC(=O)[C@H](CCC(N)=O)NC(=O)[C@@H](NC(=O)[C@@H](N)Cc2ccc(O)cc2)CSSC[C@@H]2NC(=O)[C@@H]3CSSC[C@@H](C(=O)N[C@@H](CCCNC(=N)N)C(=O)N[C@@H](CCCCN)C(=O)N[C@@H](Cc4ccc(O)cc4)C(=O)N[C@@H](CCCCN)C(N)=O)NC(=O)[C@H](Cc4c[nH]c5ccccc45)NC(=O)[C@H](CC(C)C)NC(=O)[C@H](CCCCN)NC(=O)[C@H](CSSC[C@H](NC(=O)[C@H]([C@@H](C)O)NC(=O)[C@H](Cc4c[nH]c5ccccc45)NC1=O)C(=O)N[C@@H](CC(=O)O)C(=O)N[C@@H](CO)C(=O)N[C@@H](CCCCN)C(=O)N[C@@H](CCCNC(=N)N)C(=O)N[C@@H](C)C(=O)N3)NC(=O)[C@H](CCC(=O)O)NC(=O)[C@H](CC(C)C)NC(=O)CNC(=O)[C@H](CCC(=O)O)NC2=O [compound 242] | < 5.30 | < 5.30 | 6.35 and 6.20 | < 5.30
5 | CSCC[C@@H]1NC(=O)[C@H](Cc2c[nH]c3ccccc23)NC(=O)[C@H](CCCCN)NC(=O)[C@H](CCC(N)=O)NC(=O)[C@@H](NC(=O)[C@@H](N)Cc2ccc(O)cc2)CSSC[C@@H]2NC(=O)[C@@H]3CSSC[C@@H](C(=O)N[C@@H](CCCNC(=N)N)C(=O)N[C@@H](CCCCN)C(=O)N[C@@H](Cc4ccc(O)cc4)C(=O)N[C@@H](CC(N)=O)C(N)=O)NC(=O)[C@H](Cc4c[nH]c5ccccc45)NC(=O)[C@H](CC(C)C)NC(=O)[C@H](CCCCN)NC(=O)[C@H](CSSC[C@H](NC(=O)[C@H]([C@@H](C)O)NC(=O)[C@H](Cc4c[nH]c5ccccc45)NC1=O)C(=O)N[C@@H](CC(=O)O)C(=O)N[C@@H](CO)C(=O)N[C@@H](CCCCN)C(=O)N[C@@H](CCCNC(=N)N)C(=O)N[C@@H](C)C(=O)N3)NC(=O)[C@H](CCC(=O)O)NC(=O)[C@H](CC(C)C)NC(=O)CNC(=O)[C@H](CCC(=O)O)NC2=O [compound 243] | < 5.30 | < 5.30 | 6.28 | < 5.30
6 | CSCC[C@@H]1NC(=O)[C@H](Cc2c[nH]c3ccccc23)NC(=O)[C@H](CCCCN)NC(=O)[C@H](CCC(N)=O)NC(=O)[C@@H](NC(=O)[C@@H](N)Cc2ccc(O)cc2)CSSC[C@@H]2NC(=O)[C@@H]3CSSC[C@@H](C(=O)N[C@@H](CCCNC(=N)N)C(=O)N[C@@H](CCCCN)C(=O)N[C@@H](Cc4ccc(O)cc4)C(=O)N[C@@H](CO)C(N)=O)NC(=O)[C@H](Cc4c[nH]c5ccccc45)NC(=O)[C@H](CC(C)C)NC(=O)[C@H](CCCCN)NC(=O)[C@H](CSSC[C@H](NC(=O)[C@H]([C@@H](C)O)NC(=O)[C@H](Cc4c[nH]c5ccccc45)NC1=O)C(=O)N[C@@H](CC(=O)O)C(=O)N[C@@H](CO)C(=O)N[C@@H](CCCCN)C(=O)N[C@@H](CCCNC(=N)N)C(=O)N[C@@H](C)C(=O)N3)NC(=O)[C@H](CCC(=O)O)NC(=O)[C@H](CC(C)C)NC(=O)CNC(=O)[C@H](CCC(=O)O)NC2=O [compound 244] | < 5.30 | < 5.30 | 6.47 | < 5.30
7 | CSCC[C@@H]1NC(=O)[C@H](Cc2c[nH]c3ccccc23)NC(=O)[C@H](CCCCN)NC(=O)[C@H](CCC(N)=O)NC(=O)[C@@H](NC(=O)[C@@H](N)Cc2ccc(O)cc2)CSSC[C@@H]2NC(=O)[C@@H]3CSSC[C@@H](C(=O)N[C@@H](CCCNC(=N)N)C(=O)N[C@@H](CCCCN)C(=O)N[C@@H](Cc4ccc(O)cc4)C(=O)N[C@@H](CCC(=O)O)C(N)=O)NC(=O)[C@H](Cc4c[nH]c5ccccc45)NC(=O)[C@H](CC(C)C)NC(=O)[C@H](CCCCN)NC(=O)[C@H](CSSC[C@H](NC(=O)[C@H]([C@@H](C)O)NC(=O)[C@H](Cc4c[nH]c5ccccc45)NC1=O)C(=O)N[C@@H](CC(=O)O)C(=O)N[C@@H](CO)C(=O)N[C@@H](CCCCN)C(=O)N[C@@H](CCCNC(=N)N)C(=O)N[C@@H](C)C(=O)N3)NC(=O)[C@H](CCC(=O)O)NC(=O)[C@H](CC(C)C)NC(=O)CNC(=O)[C@H](CCC(=O)O)NC2=O [compound 245] | < 5.30 | < 5.30 | 5.33 | < 5.30
8 | CCCC[C@@H]1NC(=O)[C@H](Cc2c[nH]c3ccccc23)NC(=O)[C@H](CCCCN)NC(=O)[C@H](CCC(N)=O)NC(=O)[C@@H](NC(=O)[C@@H](N)Cc2ccc(O)cc2)CSSC[C@@H]2NC(=O)[C@@H]3CSSC[C@@H](C(=O)N[C@@H](CCCNC(=N)N)C(=O)N[C@@H](CCCCN)C(=O)N[C@H](C(=O)N[C@H](C(N)=O)[C@@H](C)CC)[C@@H](C)CC)NC(=O)[C@H](Cc4c[nH]c5ccccc45)NC(=O)[C@H](CC(C)C)NC(=O)[C@H](CCCCN)NC(=O)[C@H](CSSC[C@H](NC(=O)[C@H](Cc4cn(CCCOCCOCCOCCOCCOCCOCCOCCOCCOCCOCCN)nn4)NC(=O)[C@H](Cc4c[nH]c5ccccc45)NC1=O)C(=O)N[C@@H](CC(=O)O)C(=O)N[C@@H](CO)C(=O)N[C@@H](CCCCN)C(=O)N[C@@H](CCCNC(=N)N)C(=O)N[C@@H](C)C(=O)N3)NC(=O)[C@H](CCCNC(=N)N)NC(=O)[C@H](CC(C)C)NC(=O)CNC(=O)[C@H](CCC(=O)O)NC2=O [compound 254] | < 5.15 | < 5.15 | 5.19 | < 5.15
9 | CCCC[C@@H]1NC(=O)[C@H](Cc2c[nH]c3ccccc23)NC(=O)[C@H](CCCCN)NC(=O)[C@H](CCC(N)=O)NC(=O)[C@@H](NC(=O)[C@@H](N)Cc2ccc(O)cc2)CSSC[C@@H]2NC(=O)[C@@H]3CSSC[C@@H](C(=O)N[C@@H](CCCNC(=N)N)C(=O)N[C@@H](CCCCN)C(=O)N[C@H](C(=O)N[C@H](C(N)=O)[C@@H](C)CC)[C@@H](C)CC)NC(=O)[C@H](Cc4c[nH]c5ccccc45)NC(=O)[C@H](CC(C)C)NC(=O)[C@H](CCCCN)NC(=O)[C@H](CSSC[C@H](NC(=O)[C@H]([C@@H](C)O)NC(=O)[C@H](Cc4c[nH]c5ccccc45)NC1=O)C(=O)N[C@@H](CC(=O)O)C(=O)N[C@@H](CO)C(=O)N[C@@H](CCCCN)C(=O)N[C@@H](CCCNC(=N)N)C(=O)N[C@@H](C)C(=O)N3)NC(=O)[C@H](CCC(=O)O)NC(=O)[C@H](CC(C)C)NC(=O)CNC(=O)[C@H](CCC(=O)O)NC2=O [compound 273] | < 5.30 | 5.39 | 6.72 | < 5.30
